The values below come from patent US12018059B2, “Human amylin analog polypeptides and methods of use” (Intarcia Therapeutics, Inc., priority 2018, dated 2024).

Positions of bridges follow the written chain, without caps; N, C: chain ends. Residues, ends and D or L forms follow the SMILES beside them.

A short description of the first data set: Pharmacokinetics, 3-hour intravenous infusion of linear (non-acylated) polypeptides. The arrangement: species or system Sprague-Dawley rats. The note with it: rat, in vivo, 0.1 mg/kg; linear polypeptides; 3-hour intravenous infusion, 0.100 mg/kg, male Sprague-Dawley rats; read-out: CL. The method, then:
Peptides were dissolved in sterile saline and administered as a 3-hour intravenous infusion to non-fasted male Sprague-Dawley rats (n=3 per group) via femoral vein cannula at a final dose of 0.100 mg/kg. […] Blood samples (approximately 250 μL) were collected for pharmacokinetic analysis via a jugular vein cannula at 0.25, 0.5, 1, 2, 3, 3.17, 3.33, 3.5, 4, 4.5, 5, and 6 hr post-start of infusion (long method) or at 1, 1.5, 2, 2.5, and 3 hr post-start of infusion (steady-state screening method). All samples were collected into microtainer tubes containing K2EDTA as anticoagulant and 25 μL of a protease inhibitor cocktail. Plasma was prepared by centrifugation and stored at −80° C. until analysis. The results of this analysis are shown in Table 9 and few exemplars in FIGS. 3a-3b.
A 60 μL aliquot of each plasma sample was placed into to a 96-well plate. To each well was added 6 μL of 0.5% Tween-20. Plates were then vortexed mixed for 10 minutes at 1200 rpm before 180 μL of 0.1% TFA in 2:1 ethanol:acetonitrile containing an appropriate internal standard was added to each well. Plates were vortex mixed for 5 min at 1300 rpm, and then centrifuged for 10 min at 2844×g. Supernatants (180 μL) were placed into a clean 96-well plate and evaporated under a nitrogen stream at 45° C. Residues were reconstituted in 80 μL of 20% acetonitrile (aq) containing 0.1% formic acid.
A […] aliquot of each plasma sample was diluted with […] of 10 mM ammonium acetate (pH 6.8) containing an appropriate internal standard and loaded onto an Oasis WCX microElution plate (Waters Corporation, Milford, MA) that had been pre-conditioned with […] of methanol and […] of deionized water. Samples were washed with […] of 5% ammonium hydroxide (aq) followed by […] of 20% acetonitrile in water. The analyte was eluted with […] of 5% formic acid in 75:25 acetonitrile:water. The eluent was dried under a nitrogen stream. Residues were reconstituted in 80 μL of 20% acetonitrile (aq) containing 0.1% formic acid.
All calibration standards were prepared in control rat plasma containing K2EDTA and protease inhibitor cocktail.
Samples and standards were analyzed by TurbolonSpray™ UPLC-MS/MS using a system consisting of a CTC HTS PAL auto-injector (Leap, Carrboro, NC), an Agilent Infinity 1290 system with column oven (Palo Alto, CA), a Valco switching valve (Houston, TX), and either an AB Sciex API 5600 TripleTOF™ or Sciex API 4000QTrap mass spectrometer (Framingham, MA). Samples were injected onto a 2.1×50 mm reverse phase C18 analytical column, typically a Waters CORTECS UPLC C18+, 1.6 μm (Waters Corporation, Milford, MA) or similar. […] Initial conditions consisted of 90% A and 10% B. The organic component was increased to 95% B over a period of 3-4 minutes, depending on the peptide. Typical flow rates were 600 μL/min. The column temperature was held constant at 40 or 50° C. Peptides were quantified by monitoring one or more product ions produced from a multiply charged parent ion.
As to `CC[C@H](C)[C@H](NC(=O)[C@@H]1CCCN1C(=O)CNC(=O)[C@H](Cc1ccccc1)NC(=O)[C@H](CC(N)=O)NC(=O)[C@H](CC(N)=O)NC(=O)[C@H](CO)NC(=O)[C@H](CO)NC(=O)[C@H](CCCCN)NC(=O)[C@H](Cc1c[nH]cn1)NC(=O)[C@H](CC(C)C)NC(=O)[C@H](CCC(=O)O)NC(=O)[C@H](CC(N)=O)NC(=O)[C@H](C)NC(=O)[C@H](CC(C)C)NC(=O)[C@H](CCCNC(=N)N)NC(=O)[C@H](CCC(N)=O)NC(=O)[C@@H](NC(=O)[C@H](C)NC(=O)[C@@H]1CSSC[C@H](NC(=O)[C@@H](N)CO)C(=O)N[C@@H](CC(N)=O)C(=O)N[C@@H]([C@@H](C)O)C(=O)N[C@@H](CO)C(=O)N[C@@H]([C@@H](C)O)C(=O)N1)[C@@H](C)O)C(=O)N[C@@H](CC(C)C)C(=O)N1CCC[C@H]1C(=O)N1CCC[C@H]1C(=O)N[C@H](C(=O)N[C@@H](CCCCN)C(=O)N[C@H](C(=O)NCC(=O)N[C@@H](CO)C(=O)N[C@@H](CC(N)=O)C(=O)N[C@H](C(=O)N[C@@H](Cc1ccc(O)cc1)C(N)=O)[C@@H](C)O)C(C)C)[C@@H](C)O` [Compound A17] (H-SCNTSTCATQRLANELHKSSNNFGPILPPTKVGSNTY-NH2; disulfide 2-7), the clearance was 20 mL/min/kg. Take `CC[C@H](C)[C@H](NC(=O)[C@@H]1CCCN1C(=O)CNC(=O)[C@H](Cc1ccccc1)NC(=O)[C@H](CCC(=O)O)NC(=O)[C@H](CC(N)=O)NC(=O)[C@H](CO)NC(=O)[C@H](CO)NC(=O)[C@H](CCCNC(=N)N)NC(=O)[C@H](Cc1c[nH]cn1)NC(=O)[C@H](CC(C)C)NC(=O)[C@H](CCC(=O)O)NC(=O)[C@H](CC(N)=O)NC(=O)[C@H](C)NC(=O)[C@H](CC(C)C)NC(=O)[C@H](CCCNC(=N)N)NC(=O)[C@H](CCC(N)=O)NC(=O)[C@@H](NC(=O)[C@H](C)NC(=O)[C@@H]1CSSC[C@H](NC(=O)[C@@H](N)CO)C(=O)N[C@@H](CC(N)=O)C(=O)N[C@@H]([C@@H](C)O)C(=O)N[C@@H](CO)C(=O)N[C@@H]([C@@H](C)O)C(=O)N1)[C@@H](C)O)C(=O)N[C@@H](CC(C)C)C(=O)N1CCC[C@H]1C(=O)N1CCC[C@H]1C(=O)N[C@H](C(=O)N[C@@H](CC(N)=O)C(=O)N[C@H](C(=O)NCC(=O)N[C@@H](CO)C(=O)N[C@@H](CC(N)=O)C(=O)N[C@H](C(=O)N[C@@H](Cc1ccc(O)cc1)C(N)=O)[C@@H](C)O)C(C)C)[C@@H](C)O` [Compound A41] (H-SCNTSTCATQRLANELHRSSNEFGPILPPTNVGSNTY-NH2; disulfide 2-7): the clearance stood at 17.5 mL/min/kg. `CC[C@H](C)[C@H](NC(=O)[C@@H]1CCCN1C(=O)CNC(=O)[C@H](Cc1ccccc1)NC(=O)[C@H](CC(N)=O)NC(=O)[C@H](CC(N)=O)NC(=O)[C@H](CO)NC(=O)[C@H](CO)NC(=O)[C@H](Cc1c[nH]cn1)NC(=O)[C@@H](NC(=O)[C@H](CC(C)C)NC(=O)[C@H](CCC(=O)O)NC(=O)[C@H](CC(N)=O)NC(=O)[C@H](C)NC(=O)[C@H](CC(C)C)NC(=O)[C@H](CCCNC(=N)N)NC(=O)[C@H](CCC(N)=O)NC(=O)[C@@H](NC(=O)[C@H](C)NC(=O)[C@@H]1CSSC[C@H](NC(=O)[C@@H](N)CO)C(=O)N[C@@H](CC(N)=O)C(=O)N[C@@H]([C@@H](C)O)C(=O)N[C@@H](CO)C(=O)N[C@@H]([C@@H](C)O)C(=O)N1)[C@@H](C)O)C(C)C)C(=O)N[C@@H](CC(C)C)C(=O)N1CCC[C@H]1C(=O)N1CCC[C@H]1C(=O)N[C@H](C(=O)N[C@@H](CC(N)=O)C(=O)N[C@H](C(=O)NCC(=O)N[C@@H](CO)C(=O)N[C@@H](CC(N)=O)C(=O)N[C@H](C(=O)N[C@@H](Cc1ccc(O)cc1)C(N)=O)[C@@H](C)O)C(C)C)[C@@H](C)O` [Compound A44] (H-SCNTSTCATQRLANELVHSSNNFGPILPPTNVGSNTY-NH2; disulfide 2-7): the clearance was 14.2 mL/min/kg. On to `CC[C@H](C)[C@H](NC(=O)[C@@H]1CCCN1C(=O)CNC(=O)[C@H](Cc1ccccc1)NC(=O)[C@H](CC(N)=O)NC(=O)[C@H](CC(N)=O)NC(=O)[C@H](CO)NC(=O)[C@H](CO)NC(=O)[C@H](CCCNC(=N)N)NC(=O)[C@H](Cc1c[nH]cn1)NC(=O)[C@H](CC(C)C)NC(=O)[C@H](Cc1ccc(O)cc1)NC(=O)[C@H](CC(N)=O)NC(=O)[C@H](C)NC(=O)[C@H](CC(C)C)NC(=O)[C@H](CCCNC(=N)N)NC(=O)[C@H](CCC(N)=O)NC(=O)[C@@H](NC(=O)[C@H](C)NC(=O)[C@@H]1CSSC[C@H](NC(=O)[C@@H](N)CO)C(=O)N[C@@H](CC(N)=O)C(=O)N[C@@H]([C@@H](C)O)C(=O)N[C@@H](C)C(=O)N[C@@H](CO)C(=O)N1)[C@@H](C)O)C(=O)N[C@@H](CC(C)C)C(=O)N1CCC[C@H]1C(=O)N1CCC[C@H]1C(=O)N[C@H](C(=O)N[C@@H](CC(N)=O)C(=O)N[C@H](C(=O)NCC(=O)N[C@@H](CO)C(=O)N[C@@H](CC(N)=O)C(=O)N[C@H](C(=O)N[C@@H](Cc1ccc(O)cc1)C(N)=O)[C@@H](C)O)C(C)C)[C@@H](C)O` [Compound A61] (H-SCNTASCATQRLANYLHRSSNNFGPILPPTNVGSNTY-NH2; disulfide 2-7), for which the clearance was 22.8 mL/min/kg.

The data set is the same for the next values; noted with them: rat, in vivo, iv, 0.1 mg/kg.
In turn, `CC[C@H](C)[C@H](NC(=O)[C@@H]1CCCN1C(=O)CNC(=O)[C@H](Cc1ccccc1)NC(=O)[C@H](CC(N)=O)NC(=O)[C@H](CC(N)=O)NC(=O)[C@H](CO)NC(=O)[C@H](CO)NC(=O)[C@H](CCCCN)NC(=O)[C@H](CCC(N)=O)NC(=O)[C@H](CC(C)C)NC(=O)[C@H](Cc1ccccc1)NC(=O)[C@H](CC(N)=O)NC(=O)[C@H](C)NC(=O)[C@H](CC(C)C)NC(=O)[C@H](CCCNC(=N)N)NC(=O)[C@H](CO)NC(=O)[C@@H](NC(=O)[C@H](C)NC(=O)[C@@H]1CSSC[C@H](NC(=O)[C@@H](N)CO)C(=O)N[C@@H](CC(N)=O)C(=O)N[C@@H]([C@@H](C)O)C(=O)N[C@@H](CO)C(=O)N[C@@H]([C@@H](C)O)C(=O)N1)[C@@H](C)O)C(=O)N[C@@H](CC(C)C)C(=O)N1CCC[C@H]1C(=O)N1CCC[C@H]1C(=O)N[C@H](C(=O)N[C@@H](CCCCN)C(=O)N[C@H](C(=O)NCC(=O)N[C@@H](CO)C(=O)N[C@@H](CCC(=O)O)C(=O)N[C@H](C(=O)N[C@@H](Cc1ccc(O)cc1)C(N)=O)[C@@H](C)O)C(C)C)[C@@H](C)O` [Compound A62] (H-SCNTSTCATSRLANFLQKSSNNFGPILPPTKVGSETY-NH2; disulfide 2-7) gave a clearance of 18.8 mL/min/kg. Molecule `CC[C@H](C)[C@H](NC(=O)[C@@H]1CCCN1C(=O)CNC(=O)[C@H](Cc1ccccc1)NC(=O)[C@H](CCC(=O)O)NC(=O)[C@H](CC(N)=O)NC(=O)[C@H](CO)NC(=O)[C@H](CO)NC(=O)[C@H](CCCCN)NC(=O)[C@@H](NC(=O)[C@H](CC(C)C)NC(=O)[C@H](Cc1ccccc1)NC(=O)[C@H](CC(N)=O)NC(=O)[C@H](CO)NC(=O)[C@H](CC(C)C)NC(=O)[C@H](CCCNC(=N)N)NC(=O)[C@H](CCC(N)=O)NC(=O)[C@@H](NC(=O)[C@H](C)NC(=O)[C@@H]1CSSC[C@H](NC(=O)[C@@H](N)CO)C(=O)N[C@@H](CC(N)=O)C(=O)N[C@@H]([C@@H](C)O)C(=O)N[C@@H](CO)C(=O)N[C@@H]([C@@H](C)O)C(=O)N1)[C@@H](C)O)C(C)C)C(=O)N[C@@H](CC(C)C)C(=O)N1CCC[C@H]1C(=O)N1CCC[C@H]1C(=O)N[C@H](C(=O)N[C@@H](CCCCN)C(=O)N[C@H](C(=O)NCC(=O)N[C@@H](CO)C(=O)N[C@@H](CCC(=O)O)C(=O)N[C@H](C(=O)N[C@@H](Cc1ccc(O)cc1)C(N)=O)[C@@H](C)O)C(C)C)[C@@H](C)O` [Compound A4] (H-SCNTSTCATQRLSNFLVKSSNEFGPILPPTKVGSETY-NH2; disulfide 2-7) gave a clearance of 13.6 mL/min/kg.
